Laboratory results: patent publication US20250089715A1, “INSECTICIDAL MIXTURES” (ADAMA MAKHTESHIM LTD., priority 2021, published 2025)

How the values were obtained:
[1] = system: Spodoptera littoralis larvae; test: Leaf-dip feeding bioassay on Spodoptera littoralis larvae (castor bean leaves); type: in vivo; details: for Lethal concentrations for Spodoptera littoralis, LD50 / Lethal concentrations for Spodoptera littoralis, LD90: early 3rd-instar larvae, treated castor bean leaves, probit analysis
Method: (§1) The laboratory susceptible strain of S. littoralis is collected in 2000 from a cotton field in Bet She'an area ([…] part of Israel) and is reared on castor bean (Ricinus communis) leaves under standard rearing conditions of 27° C., 55% RH and 14 h photoperiod. Field strain of H. armigera was collected in June 2020 from cotton fields near Rehovot area and was reared on premixed diet (Ward's Stonefly Heliothis Diet, USA) under standard rearing conditions of 27° C., 55% RH and 14 h photoperiod.
Assays with S. littoralis larvae were done as described by Ishaaya et al. (1996, 2003). Castor bean leaves were dipped in various concentrations of the test compounds (and water as control), and were air dried for 2 h under controlled room conditions. The treated leaves were transferred into foam plastic (“Kalkar”) cups containing a layer of sawdust to avoid humidity. The treated leaves were offered to early 3rd-instar (12±1 mg) for 4-day feeding of the laboratory susceptible strain and for additional 4 days on untreated leaves. Larval mortality was determined and recorded on day 4 and 8 or as indicated, and larval weight gain (LWG) was determined on day 4 and 8 or as indicated.
(§2) To obtain a concentration-mortality line, at least three concentrations were used for most of the bioassays. LC values were estimated by probit analysis (POLO, 1987). Control mortality was corrected using Abbott's (1925) formula.
(§3) Firstly, all the compounds were assessed alone against the larvae, and then, binary mixtures of chlorantraniliprole with tau-fluvalinate were evaluated in different ratios.

[2] = system: Helicoverpa armigera (Heliothis) larvae; test: Leaf-dip bioassay on Helicoverpa armigera larvae (cotton leaves); type: in vivo; details: for Lethal concentrations for Helicoverpa armigera (Heliothis), LD50 / Lethal concentrations for Helicoverpa armigera (Heliothis), LD90: third instar larvae, treated cotton leaves, probit analysis
Method: as §1
Tender leaves of cotton were dipped in aqueous concentrations of a formulation or in water as control. After 15 seconds of dipping, the cotton leaves were then allowed to air dry for 2 h. Afterwards, Heliothis larvae (third instars, 8-10 mm), reared in a controlled growth room (27±2° C. and 50% RH with a photoperiod of 14:10 h light:dark) were put inside Petri dishes on treated cotton leaves; in addition, filter papers were also added to the dishes (to avoid too much moisture). The experiments were done on 5-10 larvae for each concentration and were repeated three times, on separate days.
Mortality of the larvae in comparison with the control was determined, two and five-six days after exposure to the formulations.
as §2, §3

SMILES | mortality at 50 ppm ([1]; Spodoptera littoralis, in Ricinus communis, 50 ppm, alone, read-out: S. littoralis mortality, %) | mortality at 100 ppm ([1]; Spodoptera littoralis, in Ricinus communis, 100 ppm, alone, read-out: S. littoralis mortality, %) | Lethal concentrations for Spodoptera littoralis, LD50 [1] | Lethal concentrations for Spodoptera littoralis, LD90 [1] | mortality at 50 ppm ([2]; Helicoverpa armigera, 50 ppm, alone, read-out: H. armigera mortality, %) | mortality at 100 ppm ([2]; Helicoverpa armigera, 100 ppm, alone, read-out: H. armigera mortality, %) | Lethal concentrations for Helicoverpa armigera (Heliothis), LD50 [2] | Lethal concentrations for Helicoverpa armigera (Heliothis), LD90 [2] | mortality at 0.05 ppm ([1]; Spodoptera littoralis, in Ricinus communis, 0.05 ppm, alone, read-out: S. littoralis mortality, %) | mortality at 0.1 ppm ([1]; Spodoptera littoralis, in Ricinus communis, 0.1 ppm, alone, read-out: S. littoralis mortality, %) | mortality at 0.05 ppm ([2]; Helicoverpa armigera, 0.05 ppm, alone, read-out: H. armigera mortality, %) | mortality at 0.1 ppm ([2]; Helicoverpa armigera, 0.1 ppm, alone, read-out: H. armigera mortality, %)
CC(C)[C@@H](Nc1ccc(C(F)(F)F)cc1Cl)C(=O)OC(C#N)c1cccc(Oc2ccccc2)c1 (stereo partly shown) [Tau-fluvalinate] | 20% | 40% | LD50 ≥ 100 ppm | LD90 ≥ 500 ppm | 30% | 45% | LD50 ≥ 100 ppm | LD90 ≥ 500 ppm |  |  |  | 
CNC(=O)c1cc(Cl)cc(C)c1NC(=O)c1cc(Br)nn1-c1ncccc1Cl [Chlorantraniliprole] |  |  | LD50 = 0.1 ppm | LD90 = 1 ppm |  |  | LD50 ≥ 0.1 ppm | LD90 ≥ 1 ppm | 27% | 48% | 18% | 40%
